Measured values taken from the NIST ThermoML archive (doi:10.1021/je300175w).
“And” between values parts separate entries of the source, which are not always exact repeats. Identical values can stand only once.

Test: mn = molality of the nth substance listed, in mol/kg
Conditions: 101 kPa, Liquid; for speed of sound: Sing-around technique in a fixed-path interferometer; for mass density: Vibrating tube method

CC(CO)(CO)CO [1,1,1-trimethylolethane] + O
speed of sound
Conditions | 278.15 K | 283.15 K | 288.15 K | 293.15 K | 298.15 K | 308.15 K | 318.15 K
m1 = 0.09995 | 1433.9 m/s and 1433.8 m/s | 1454.4 m/s | 1472.6 m/s | 1488.5 m/s | 1502.4 m/s and 1502.5 m/s | 1525 m/s | 1540.9 m/s
m1 = 0.1985 | 1441.3 m/s | 1461.3 m/s | 1479 m/s | 1494.5 m/s | 1508 m/s and 1508.1 m/s | 1529.9 m/s | 1545.2 m/s and 1545.5 m/s
m1 = 0.291 | 1448.2 m/s | 1467.7 m/s | 1484.9 m/s | 1500.1 m/s | 1513.2 m/s | 1534.4 m/s and 1534.7 m/s | 1549.1 m/s and 1549 m/s
m1 = 0.3923 | 1455.6 m/s | 1474.6 m/s | 1491.3 m/s and 1491.4 m/s | 1506.1 m/s | 1518.8 m/s | 1539.3 m/s and 1539.6 m/s | 1553.3 m/s and 1553.2 m/s
m1 = 0.4962 | 1463.1 m/s | 1481.5 m/s and 1481.6 m/s | 1497.8 m/s | 1512.1 m/s | 1524.4 m/s and 1524.5 m/s | 1544.2 m/s and 1544.5 m/s | 1557.6 m/s and 1557.4 m/s
m1 = 0.6042 | 1470.7 m/s | 1488.6 m/s | 1504.4 m/s | 1518.2 m/s | 1530.1 m/s and 1530.2 m/s | 1549.2 m/s and 1548.9 m/s | 1561.9 m/s and 1561.7 m/s

CC(C)(CO)CO [2,2-dimethyl-1,3-propanediol] + O
Conditions | mass density | speed of sound
273.15 K, m1 = 0.1001 | 1000.25 kg/m3 | –
273.15 K, m1 = 0.2006 | 1000.57 kg/m3 | –
273.15 K, m1 = 0.2997 | 1000.91 kg/m3 | –
273.15 K, m1 = 0.4021 | 1001.28 kg/m3 | –
273.15 K, m1 = 0.5001 | 1001.66 kg/m3 | –
273.15 K, m1 = 0.6007 | 1002.07 kg/m3 | –
278.15 K, m1 = 0.1001 | – | 1435.8 m/s
278.15 K, m1 = 0.2006 | – | 1445.4 m/s
278.15 K, m1 = 0.2997 | – | 1454.5 m/s
278.15 K, m1 = 0.4021 | – | 1463.8 m/s
278.15 K, m1 = 0.5001 | – | 1472.5 m/s
278.15 K, m1 = 0.6007 | – | 1481.3 m/s
283.15 K, m1 = 0.1001 | 999.968 kg/m3 and 999.967 kg/m3 | 1456.2 m/s
283.15 K, m1 = 0.2006 | 1000.26 kg/m3 | 1464.9 m/s
283.15 K, m1 = 0.2997 | 1000.57 kg/m3 | 1473.3 m/s and 1473.4 m/s
283.15 K, m1 = 0.4021 | 1000.92 kg/m3 | 1481.9 m/s
283.15 K, m1 = 0.5001 | 1001.26 kg/m3 | 1489.9 m/s
283.15 K, m1 = 0.6007 | 1001.63 kg/m3 and 1001.64 kg/m3 | 1497.9 m/s and 1498 m/s
288.15 K, m1 = 0.1001 | 999.35 kg/m3 and 999.351 kg/m3 | 1474.1 m/s and 1474.2 m/s
288.15 K, m1 = 0.2006 | 999.623 kg/m3 | 1482.2 m/s
288.15 K, m1 = 0.2997 | 999.911 kg/m3 and 999.913 kg/m3 | 1490 m/s and 1489.9 m/s
288.15 K, m1 = 0.4021 | 1000.23 kg/m3 | 1497.8 m/s
288.15 K, m1 = 0.5001 | 1000.54 kg/m3 and 1000.55 kg/m3 | 1505.2 m/s
288.15 K, m1 = 0.6007 | 1000.88 kg/m3 | 1512.6 m/s
293.15 K, m1 = 0.1001 | 998.435 kg/m3 and 998.438 kg/m3 and 998.44 kg/m3 | 1489.9 m/s
293.15 K, m1 = 0.2006 | 998.688 kg/m3 and 998.69 kg/m3 and 998.693 kg/m3 | 1497.4 m/s and 1497.3 m/s
293.15 K, m1 = 0.2997 | 998.956 kg/m3 and 998.958 kg/m3 and 998.96 kg/m3 | 1504.5 m/s
293.15 K, m1 = 0.4021 | 999.245 kg/m3 and 999.25 kg/m3 and 999.252 kg/m3 | 1511.8 m/s
293.15 K, m1 = 0.5001 | 999.536 kg/m3 and 999.541 kg/m3 and 999.543 kg/m3 | 1518.5 m/s
293.15 K, m1 = 0.6007 | 999.846 kg/m3 and 999.849 kg/m3 and 999.851 kg/m3 | 1525.3 m/s
298.15 K, m1 = 0.1001 | 997.263 kg/m3 and 997.264 kg/m3 and 997.261 kg/m3 | 1503.7 m/s
298.15 K, m1 = 0.2006 | 997.499 kg/m3 | 1510.5 m/s and 1510.6 m/s
298.15 K, m1 = 0.2997 | 997.744 kg/m3 and 997.745 kg/m3 and 997.742 kg/m3 | 1517.1 m/s and 1517.2 m/s
298.15 K, m1 = 0.4021 | 998.013 kg/m3 and 998.015 kg/m3 | 1523.8 m/s and 1523.9 m/s
298.15 K, m1 = 0.5001 | 998.28 kg/m3 and 998.279 kg/m3 and 998.282 kg/m3 | 1530 m/s and 1530.1 m/s
298.15 K, m1 = 0.6007 | 998.56 kg/m3 and 998.559 kg/m3 and 998.562 kg/m3 | 1536.2 m/s and 1536.3 m/s
303.15 K, m1 = 0.1001 | 995.849 kg/m3 and 995.85 kg/m3 | 1515.6 m/s
303.15 K, m1 = 0.2006 | 996.066 kg/m3 and 996.067 kg/m3 | 1521.9 m/s
303.15 K, m1 = 0.2997 | 996.293 kg/m3 and 996.294 kg/m3 | 1528 m/s
303.15 K, m1 = 0.4021 | 996.538 kg/m3 and 996.539 kg/m3 | 1534.1 m/s
303.15 K, m1 = 0.5001 | 996.781 kg/m3 | 1539.9 m/s and 1539.8 m/s
303.15 K, m1 = 0.6007 | 997.037 kg/m3 and 997.036 kg/m3 | 1545.6 m/s and 1545.5 m/s
308.15 K, m1 = 0.1001 | 994.216 kg/m3 and 994.215 kg/m3 | 1525.8 m/s
308.15 K, m1 = 0.2006 | 994.415 kg/m3 and 994.416 kg/m3 | 1531.6 m/s and 1531.5 m/s
308.15 K, m1 = 0.2997 | 994.624 kg/m3 and 994.621 kg/m3 | 1537.2 m/s and 1537.1 m/s
308.15 K, m1 = 0.4021 | 994.845 kg/m3 and 994.847 kg/m3 | 1542.8 m/s
308.15 K, m1 = 0.5001 | 995.067 kg/m3 and 995.065 kg/m3 and 995.068 kg/m3 | 1548 m/s and 1548.1 m/s
308.15 K, m1 = 0.6007 | 995.297 kg/m3 and 995.296 kg/m3 and 995.298 kg/m3 | 1553.2 m/s and 1553.1 m/s
318.15 K, m1 = 0.1001 | 990.368 kg/m3 and 990.367 kg/m3 | 1541.5 m/s and 1541.4 m/s
318.15 K, m1 = 0.2006 | 990.531 kg/m3 and 990.532 kg/m3 and 990.533 kg/m3 | 1546.4 m/s and 1546.3 m/s
318.15 K, m1 = 0.2997 | 990.701 kg/m3 and 990.7 kg/m3 | 1551 m/s
318.15 K, m1 = 0.4021 | 990.883 kg/m3 and 990.882 kg/m3 | 1555.6 m/s and 1555.7 m/s
318.15 K, m1 = 0.5001 | 991.06 kg/m3 and 991.057 kg/m3 and 991.058 kg/m3 | 1559.9 m/s and 1560 m/s
318.15 K, m1 = 0.6007 | 991.242 kg/m3 and 991.241 kg/m3 | 1564.2 m/s and 1564.3 m/s

CC(C)(C)CO [2,2-dimethyl-1-propanol] + O
speed of sound
Conditions | 278.15 K | 283.15 K | 288.15 K | 293.15 K | 298.15 K | 308.15 K | 318.15 K
m1 = 0.0485 | 1430.2 m/s | 1452.5 m/s | 1470.7 m/s | 1486.8 m/s | 1500.7 m/s | 1523.3 m/s and 1523.1 m/s | 1539.1 m/s and 1539.2 m/s
m1 = 0.09995 | 1434.4 m/s | 1457.9 m/s and 1458 m/s | 1475.7 m/s | 1491.3 m/s | 1504.9 m/s | 1526.6 m/s and 1526.4 m/s | 1541.8 m/s
m1 = 0.1472 | 1438.2 m/s and 1438.1 m/s | 1463 m/s and 1462.9 m/s | 1480.2 m/s | 1495.5 m/s | 1508.7 m/s | 1529.7 m/s and 1529.5 m/s | 1544.3 m/s and 1544.2 m/s
m1 = 0.1999 | 1442.3 m/s | 1468.5 m/s and 1468.4 m/s | 1485.2 m/s | 1500 m/s | 1512.8 m/s | 1532.9 m/s | 1546.9 m/s
